Test results from patent US12336981B2, “Compounds and compositions for the inhibition of NAMPT” (Valo Health, Inc., priority 2010, dated 2025).
Read-outs that look alike come from different tables or passages of the source.

How the values were obtained:
[1] = biological target: T1, NAMPT (Homo sapiens, UniProt P43490); test: Biochemical inhibition assay: NAMPT enzymatic reaction, NMN quantified by mass spectrometry; details: read-out: Biochem IC50
T1 construct: His tag; host or cells: E. coli
Procedure, shortened: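 Inhibition of E. coli-expressed His-tagged human NAMPT, measured as NMN formation by mass spectrometry after a 30 min room-temperature reaction containing 1 μM NAM, 100 μM PRPP and 2.5 mM ATP.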

[2] = system: A2780 cells; test: In-vitro cell proliferation assay (SRB), A2780 cells; assay type: cell-based; details: Homo sapiens, A2780, 72 h, A2780 cells, 72 hours, read-out: A2780 IC50
Procedure, shortened: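 Proliferation is assessed by sulforhodamine B staining following a 72-hour incubation with compound dilutions containing 0.1% DMSO.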

T1 sequence (P43490 whole entry): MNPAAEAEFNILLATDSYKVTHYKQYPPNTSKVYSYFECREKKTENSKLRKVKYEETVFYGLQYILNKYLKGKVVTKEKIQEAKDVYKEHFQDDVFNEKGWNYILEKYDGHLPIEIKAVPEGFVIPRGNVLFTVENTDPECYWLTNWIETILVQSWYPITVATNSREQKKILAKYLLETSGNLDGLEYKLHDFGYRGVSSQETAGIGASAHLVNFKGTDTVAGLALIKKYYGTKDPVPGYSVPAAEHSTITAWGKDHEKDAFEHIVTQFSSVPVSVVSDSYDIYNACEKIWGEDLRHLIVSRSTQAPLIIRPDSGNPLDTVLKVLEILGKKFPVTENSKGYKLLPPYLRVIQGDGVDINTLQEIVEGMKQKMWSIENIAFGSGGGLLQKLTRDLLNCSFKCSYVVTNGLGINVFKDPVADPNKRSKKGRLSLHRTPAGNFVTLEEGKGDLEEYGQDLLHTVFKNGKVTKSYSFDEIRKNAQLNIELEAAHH

Compound	IC50 ([1]; NAMPT enzymatic assay) [nM]	IC50 ([2]; SRB) [nM]	IC50 ([1]; NAMPT enzymatic reaction) [nM]	IC50 ([2]; SRB assay) [nM]
CC(C)COc1ccc(S(=O)(=O)c2ccc(CNC(=O)c3cc4ccncc4s3)cc2)cc1	4	10.3		
COc1cc(S(=O)(=O)c2ccc(CNC(=O)c3cc4cnccc4[nH]3)cc2)ccc1F		5.4	27.8	
O=C(NCc1ccc(S(=O)(=O)c2ccc(OC(F)(F)F)c(F)c2)cc1)c1cc2cnccc2[nH]1 [N-[(4-{[3-fluoro-4-(trifluoromethoxy)benzene]sulfonyl}phenyl)methyl]-1H-pyrrolo[3,2-c]pyridine-2-carboxamide]	26.2	20.5		
CCCOc1cccc(S(=O)(=O)c2ccc(CNC(=O)c3cc4cnccc4[nH]3)cc2)c1		12.2	10.2	
N#CC1(c2ccc(S(=O)(=O)c3ccc(CNC(=O)c4ccc5nccn5c4)cc3)cc2)CCCC1	10.7	3		
Cc1ccc(Cl)c(S(=O)(=O)c2ccc(CNC(=O)c3cnc4[nH]ncc4c3)cc2)c1F [N-({4-[(6-chloro-2-fluoro-3-methylbenzene)sulfonyl]phenyl}methyl)-1H-pyrazolo[3,4-b]pyridine-5-carboxamide]	112	100 to 1000		
Cc1nc(C)c(S(=O)(=O)c2ccc(CNC(=O)c3cnc4nccn4c3)cc2)s1 [N-{[4-(dimethyl-1,3-thiazole-5-sulfonyl)phenyl]methyl}imidazo[1,2-a]pyrimidine-6-carboxamide]	3.7	49.5		
Cc1ccc(S(=O)(=O)c2ccc(CNC(=O)c3cnc4nccn4c3)cc2)cc1		19.4	4.3	
CS(=O)(=O)c1ccc(S(=O)(=O)c2ccc(CNC(=O)c3cnc4[nH]ncc4c3)cc2)cc1 [N-({4-[(4-methanesulfonylbenzene)sulfonyl]phenyl}methyl)-1H-pyrazolo[3,4-b]pyridine-5-carboxamide]		23.8	29.3	
CC(C)Oc1ccccc1NS(=O)(=O)c1ccc(CNC(=O)c2cc3cnccc3[nH]2)cc1 [N-[(4-{[2-(propan-2-yloxy)phenyl]sulfamoyl}phenyl)methyl]-1H-pyrrolo[3,2-c]pyridine-2-carboxamide]			3	1
O=C(NCc1ccc(S(=O)(=O)c2ccccc2)cc1)N1CCc2nocc2C1 [N-{[4-(benzenesulfonyl)phenyl]methyl}-4H,5H,6H,7H-[1,2]oxazolo[4,3-c]pyridine-5-carboxamide]			> 2000	> 2000
O=C(NCc1ccc(S(=O)(=O)c2cccc(N3CCCCC3)c2)cc1)c1ccc2ncsc2c1	21	100 to 1000		
O=C(NCc1ccc(S(=O)(=O)c2cccc(F)c2Cl)cc1)c1cc2ccncc2o1		61.1	17	
O=C(NCc1ccc(S(=O)(=O)c2cnc(N3CCCC3)s2)cc1)c1cnc2[nH]ncc2c1 [N-({4-[2-(pyrrolidin-1-yl)-1,3-thiazole-5-sulfonyl]phenyl}methyl)-1H-pyrazolo[3,4-b]pyridine-5-carboxamide]	2.8	0.9		
COc1ccc(OC)c(S(=O)(=O)c2ccc(CNC(=O)c3cc4cnccc4[nH]3)cc2)c1 [N-({4-[(2,5-dimethoxybenzene)sulfonyl]phenyl}methyl)-1H-pyrrolo[3,2-c]pyridine-2-carboxamide]	17	6		
O=C(NCc1ccc(S(=O)(=O)c2ccccc2)cc1)N1CCc2[nH]cnc2C1 [N-{[4-(benzenesulfonyl)phenyl]methyl}-1H,4H,5H,6H,7H-imidazo[4,5-c]pyridine-5-carboxamide]			> 2000	> 2000
CCCOc1ccc(S(=O)(=O)c2ccc(CNC(=O)c3cnc4nccn4c3)cc2)cc1		6.1	2.2	
O=C(NCc1ccc(S(=O)(=O)c2cc(O)ccc2OC(F)(F)F)cc1)c1cc2ccncc2o1	6.4	11.5		

Compound	IC50 ([1]; NAMPT enzymatic assay) [nM]	IC50 ([2]; SRB) [nM]	IC50 ([1]; NAMPT enzymatic reaction) [nM]	IC50 ([2]; SRB assay) [nM]
CCOc1ccccc1S(=O)(=O)c1ccc(CNC(=O)c2cnc3nccn3c2)cc1		7.1	1	
Cc1ccc(Cl)c(S(=O)(=O)c2ccc(CNC(=O)c3cc4ccncc4o3)cc2)c1Cl		16.2	10.8	
Cc1cc(F)cc(S(=O)(=O)c2ccc(CNC(=O)c3cc4cnccc4[nH]3)cc2)c1		1.8	8.3	
O=C(NCc1ccc(S(=O)(=O)c2ccc(Cl)c(F)c2)cc1)c1ccc2nccn2c1 [N-({4-[(4-chloro-3-fluorobenzene)sulfonyl]phenyl}methyl)imidazo[1,2-a]pyridine-6-carboxamide]		7.24	7.22	
CCCCOc1ccc(S(=O)(=O)c2ccc(CNC(=O)c3cc4cnccc4[nH]3)cc2)c(C)c1		62.5	80	
O=C(NCc1ccc(S(=O)(=O)c2cnc3ccc(Cl)cn23)cc1)c1cnc2[nH]ncc2c1 [N-[(4-{6-chloroimidazo[1,2-a]pyridine-3-sulfonyl}phenyl)methyl]-1H-pyrazolo[3,4-b]pyridine-5-carboxamide]	3.3	0.8		
O=C(NCc1ccc(S(=O)(=O)c2ccc(Cl)c(F)c2)cc1)c1cc2cnccc2[nH]1 [N-({4-[(4-chloro-3-fluorobenzene)sulfonyl]phenyl}methyl)-1H-pyrrolo[3,2-c]pyridine-2-carboxamide]			8	13
CCCOc1ccc(S(=O)(=O)c2ccc(CNC(=O)c3cc4ccncc4o3)cc2)cc1F		11.8	6.8	
COc1ccc(F)c(S(=O)(=O)c2ccc(CNC(=O)c3ccc4nccn4c3)cc2)c1		12.8	4.7	
CN(C)c1ccc(S(=O)(=O)c2ccc(CNC(=O)c3cc4ccncc4o3)cc2)cn1 [N-({4-[6-(dimethylamino)pyridine-3-sulfonyl]phenyl}methyl)furo[2,3-c]pyridine-2-carboxamide]	3	1.8		
Cc1cc(S(=O)(=O)c2ccc(CNC(=O)c3cnc4[nH]ncc4c3)cc2)c(C)cc1F [N-({4-[(4-fluoro-2,5-dimethylbenzene)sulfonyl]phenyl}methyl)-1H-pyrazolo[3,4-b]pyridine-5-carboxamide]		45.9	37.3	
COc1ccc(C)c(NS(=O)(=O)c2ccc(CNC(=O)c3cc4cnccc4[nH]3)cc2)c1 [N-({4-[(5-methoxy-2-methylphenyl)sulfamoyl]phenyl}methyl)-1H-pyrrolo[3,2-c]pyridine-2-carboxamide]			51	13000
O=C(NCc1ccc(S(=O)(=O)c2ccc3nc(C(F)(F)F)cn3c2)cc1)c1cnc2[nH]ncc2c1 [N-({4-[2-(trifluoromethyl)imidazo[1,2-a]pyridine-6-sulfonyl]phenyl}methyl)-1H-pyrazolo[3,4-b]pyridine-5-carboxamide]	49.7	33		
O=C(NCc1ccc(S(=O)(=O)c2cccc(-n3cccn3)c2)cc1)c1ccc2nccn2c1	4.8	6.2		
COc1ccc(S(=O)(=O)c2ccc(CNC(=O)c3cnc4nccn4c3)cc2)cc1OC		7.3	2.9	
O=C(NCc1ccc(S(=O)(=O)c2cc(C(F)(F)F)ccn2)cc1)c1cc2ccncc2o1 [N-({4-[4-(trifluoromethyl)pyridine-2-sulfonyl]phenyl}methyl)furo[2,3-c]pyridine-2-carboxamide]	13.9	6.1		
O=C(NCc1ccc(S(=O)(=O)c2cccc3cccnc23)cc1)c1cc2ccncc2s1 [N-{[4-(quinoline-8-sulfonyl)phenyl]methyl}thieno[2,3-c]pyridine-2-carboxamide]			6	2.5
